In patent publication US10722501B2 (BAYER AKTIENGESELLSCHAFT, priority 2016, dated 2020):

target: T1, recombinant full-length human prolyl endopeptidase (PREP) (Homo sapiens, UniProt P48147); test: Biochemical human prolyl endopeptidase (PREP) assay with fluorescently labelled substrate; conditions: substrate Z-Gly-Pro-AMC 50 μM, 32° C., 60 min; some as mean values from multiple independent determinations
T1 construct: To recombinant full-length human prolyl endopeptidase (PREP, R&D-Systems, 4308-SE); purchased R&D-Systems 4308-SE
T1 sequence (P48147 1-710): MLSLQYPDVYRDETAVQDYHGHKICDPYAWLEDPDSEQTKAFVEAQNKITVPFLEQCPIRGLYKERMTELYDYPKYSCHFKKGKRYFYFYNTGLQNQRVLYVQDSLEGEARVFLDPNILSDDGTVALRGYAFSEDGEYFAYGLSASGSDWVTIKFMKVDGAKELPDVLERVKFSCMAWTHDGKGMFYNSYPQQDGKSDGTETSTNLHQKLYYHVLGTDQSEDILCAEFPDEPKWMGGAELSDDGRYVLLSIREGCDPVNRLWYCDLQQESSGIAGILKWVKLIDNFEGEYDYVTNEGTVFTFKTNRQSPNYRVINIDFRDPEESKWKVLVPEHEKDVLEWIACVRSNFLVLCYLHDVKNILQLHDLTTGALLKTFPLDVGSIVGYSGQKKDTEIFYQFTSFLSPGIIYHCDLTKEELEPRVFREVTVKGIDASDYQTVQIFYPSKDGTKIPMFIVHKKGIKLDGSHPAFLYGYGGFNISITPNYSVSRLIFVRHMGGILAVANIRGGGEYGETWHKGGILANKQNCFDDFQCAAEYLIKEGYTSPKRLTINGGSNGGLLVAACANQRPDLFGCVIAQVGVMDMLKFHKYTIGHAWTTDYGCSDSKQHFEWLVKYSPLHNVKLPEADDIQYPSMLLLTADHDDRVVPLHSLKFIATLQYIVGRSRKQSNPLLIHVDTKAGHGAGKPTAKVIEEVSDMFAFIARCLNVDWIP
In short: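 0.4 nM (final, example) recombinant PREP in pH 7.5 Tris buffer with EDTA, GSH, BSA and Brij-35; compounds at 1 nM to 30 μM. Reaction started with 50 μM Z-Gly-Pro-AMC and followed by fluorescence (ex 360/em 465 nm) at 32° C for 60 min. IC50 interpolated from percent activity based on initial slopes.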

Structure (SMILES) | IC50 [nM]
Cn1ncc2cc(Cn3nc4n(c3=O)C(C(=O)N3CCCC3)CCC4)ccc21 (racemic) [Example 64, (5RS)-2-[(1-Methyl-1H-indazol-5-yl)methyl]-5-(pyrrolidin-1-ylcarbonyl)-5,6,7,8-tetrahydro[1,2,4]triazolo[4,3-a]pyridin-3(2H)-one] | 0.94
O=C(C1CCc2nn(Cc3ccc(F)c(Cl)c3)c(=O)n21)N1C[C@@H](F)[C@@H](F)C1 (mixture of isomers) [Example 174, (5RS)-2-(3-Chloro-4-fluorobenzyl)-5-{[(3R,4S)-3,4-difluoropyrrolidin-1-yl)carbonyl]-2,5,6,7-tetrahydro-3H-pyrrolo[2,1-c][1,2,4]triazol-3-one] | 1.15
Cc1ccc(Cn2nc3n(c2=O)[C@H](C(=O)N2CCCC2)CC3)cc1 [Example 157, (5S)-2-(4-Methylbenzyl)-5-(pyrrolidin-1-ylcarbonyl)-2,5,6,7-tetrahydro-3H-pyrrolo[2,1-c][1,2,4]triazol-3-one] | 1.3
O=C([C@@H]1CCCc2nn(Cc3cc4cccnc4nc3C(F)(F)F)c(=O)n21)N1CC[C@H](F)C1 [Example 419, (5S)-5-{[(3S)-3-Fluoropyrrolidin-1-yl]carbonyl}-2-{[2-(trifluoromethyl)-1,8-naphthyridin-3-yl]methyl}-5,6,7,8-tetrahydro[1,2,4]triazolo[4,3-a]pyridin-3(2H)-one] | 0.88
Cc1ccc(Cn2nc3n(c2=O)[C@H](C(=O)N2CCC[C@H]2C(=O)CO)CCC3)cc1 [Example 190, (5S)-5-{[(2S)-2-Glycoloylpyrrolidin-1-yl]carbonyl}-2-(4-methylbenzyl)-5,6,7,8-tetrahydro[1,2,4]triazolo[4,3-a]pyridin-3(2H)-one] | 0.13
O=C([C@@H]1CCCc2nn(Cc3cc(C(F)(F)F)nc4ccccc34)c(=O)n21)N1CCCC1 [Example 76, (5S)-5-(Pyrrolidin-1-ylcarbonyl)-2-{[2-(trifluoromethyl)quinolin-4-yl]methyl}-5,6,7,8-tetrahydro[1,2,4]triazolo[4,3-a]pyridin-3(2H)-one] | 0.38
Cc1ccc(Cn2nc3n(c2=O)[C@H](C(=O)N2CC[S+]([O-])C2)CCC3)cc1 (single isomer, unassigned) [Example 193] | 0.42
Cc1ccc(Cn2nc3n(c2=O)[C@H](C(=O)N2CC4(C2)CC4(F)F)CCC3)cc1 [Example 191, (5S)-5-[(1,1-Difluoro-5-azaspiro[2.3]hex-5-yl)carbonyl]-2-(4-methylbenzyl)-5,6,7,8-tetrahydro[1,2,4]triazolo[4,3-a]pyridin-3(2H)-one] | 2.8
O=C([C@@H]1CCCc2nn(Cc3cncc(C(F)(F)F)c3)c(=O)n21)N1C[C@@H](F)[C@@H](F)C1 [Example 578, (5S)-5-{[(3R,4S)-3,4-Difluoropyrrolidin-1-yl]carbonyl}-2-{[5-(trifluoromethyl)pyridin-3-yl]methyl}-5,6,7,8-tetrahydro[1,2,4]triazolo[4,3-a]pyridin-3(2H)-one] | 2.3
O=C([C@@H]1CCCc2nn(Cc3cc(C(F)(F)F)c(Cl)cn3)c(=O)n21)N1CC(O)C1 [Example 373, (5S)-2-{[5-Chloro-4-(trifluoromethyl)pyridin-2-yl]methyl}-5-[(3-hydroxyazetidin-1-yl)carbonyl]-5,6,7,8-tetrahydro[1,2,4]triazolo[4,3-a]pyridin-3(2H)-one] | 135
O=C(C1CC(C(F)(F)F)Cc2nn(Cc3ccc(C(F)(F)F)nc3)c(=O)n21)N1CCC(F)(F)C1 (racemic) [Example 312, (5RS,7RS)-5-[(3,3-Difluoropyrrolidin-1-yl)carbonyl]-7-(trifluoromethyl)-2-{[6-(trifluoromethyl)pyridin-3-yl]methyl}-5,6,7,8-tetrahydro[1,2,4]triazolo[4,3-a]pyridin-3(2H)-one] | 8.9
O=C(C1CCCc2nn(Cc3ccc(F)c(Cl)c3)c(=O)n21)N1CCC(F)(F)C1 (racemic) [Example 86, (5RS)-2-(3-Chloro-4-fluorobenzyl)-5-[(3,3-difluoropyrrolidin-1-yl)carbonyl]-5,6,7,8-tetrahydro[1,2,4]triazolo[4,3-a]pyridin-3(2H)-one] | 1
Cc1ccc(Cn2nc3n(c2=O)[C@H](C(=O)N2CC(C)(F)C2)CCC3)cc1 [Example 195, (5S)-5-[(3-Fluoro-3-methylazetidin-1-yl)carbonyl]-2-(4-methylbenzyl)-5,6,7,8-tetrahydro[1,2,4]triazolo[4,3-a]pyridin-3(2H)-one] | 0.69
Cc1ccc(Cn2nc3n(c2=O)C(C(=O)N2CC(OC(F)F)C2)CCC3)cc1 (racemic) [Example 123, (5RS)-5-{[3-(Difluoromethoxy)azetidin-1-yl]carbonyl}-2-(4-methylbenzyl)-5,6,7,8-tetrahydro[1,2,4]triazolo[4,3-a]pyridin-3(2H)-one] | 12
O=C(C1CCCc2nn(Cc3ccc(Cl)cc3)c(=O)n21)N1CCCC1 (racemic) [Example 27, (5RS)-2-(4-Chlorobenzyl)-5-(pyrrolidin-1-ylcarbonyl)-5,6,7,8-tetrahydro[1,2,4]triazolo[4,3-a]pyridin-3(2H)-one] | 1.28
O=C(C1CCCc2nn(Cc3cccc(C(F)(F)F)c3)c(=O)n21)N1CCCC1 (racemic) [Example 19, (5RS)-5-(Pyrrolidin-1-ylcarbonyl)-2-[3-(trifluoromethyl)benzyl]-5,6,7,8-tetrahydro[1,2,4]triazolo[4,3-a]pyridin-3(2H)-one] | 0.57
O=C(C1CCCc2nn(Cc3ccc(C(F)(F)F)nc3)c(=O)n21)N1CCC(F)(F)C1 (racemic) [Example 79, (5RS)-5-[(3,3-Difluoropyrrolidin-1-yl)carbonyl]-2-{[6-(trifluoromethyl)pyridin-3-yl]methyl}-5,6,7,8-tetrahydro[1,2,4]triazolo[4,3-a]pyridin-3(2H)-one] | 6.7
O=C([C@@H]1CCCc2nn(Cc3cncc(Cl)c3)c(=O)n21)N1CC(F)C(F)C1 (mixture of isomers) [Example 548, (5S)-2-[(5-Chloropyridin-3-yl)methyl]-5-{[trans-3,4-difluoropyrrolidin-1-yl]carbonyl}-5,6,7,8-tetrahydro[1,2,4]triazolo[4,3-a]pyridin-3(2H)-one] | 31
CC1Cc2nn(Cc3ccc(C(F)(F)F)nc3)c(=O)n2C(C(=O)N2C[C@@H](F)[C@@H](F)C2)C1 (mixture of isomers) [Example 336, (5RS,7RS)-5-{[(3R,4S)-3,4-Difluoropyrrolidin-1-yl]carbonyl}-7-methyl-2-{[6-(trifluoromethyl)pyridin-3-yl]methyl}-5,6,7,8-tetrahydro[1,2,4]triazolo[4,3-a]pyridin-3(2H)-one] | 0.66
O=C([C@@H]1CCCc2nn(CC3(c4ccc(F)cc4F)CC3)c(=O)n21)N1CCCC1 [Example 530, (5S)-2-{[1-(2,4-Difluorophenyl)cyclopropyl]methyl}-5-(pyrrolidin-1-ylcarbonyl)-5,6,7,8-tetrahydro[1,2,4]triazolo[4,3-a]pyridin-3(2H)-one] | 0.22
O=C([C@@H]1CCCc2nn(Cc3cncc(C(F)(F)F)c3)c(=O)n21)N1CCCC1 [Example 535, (5S)-5-(Pyrrolidin-1-ylcarbonyl)-2-{[5-(trifluoromethyl)pyridin-3-yl]methyl}-5,6,7,8-tetrahydro[1,2,4]triazolo[4,3-a]pyridin-3(2H)-one] | 5.1
O=C(C1CC(C(F)(F)F)Cc2nn(Cc3cncc(Cl)c3)c(=O)n21)N1CC[C@H](F)C1 (mixture of isomers) [Example 316, (5RS,7RS)-2-[(5-Chloropyridin-3-yl)methyl]-5-{[(3S)-3-fluoropyrrolidin-1-yl]carbonyl}-7-(trifluoromethyl)-5,6,7,8-tetrahydro[1,2,4]triazolo[4,3-a]pyridin-3(2H)-one] | 2.6
Cc1nc(C)c(Cn2nc3n(c2=O)C(C(=O)N2CCCC2)CCC3)nc1C (single isomer, unassigned) [Example 104, (5RS)-5-(Pyrrolidin-1-ylcarbonyl)-2-[(3,5,6-trimethylpyrazin-2-yl)methyl]-5,6,7,8-tetrahydro[1,2,4]triazolo[4,3-a]pyridin-3(2H)-one] | 0.46
O=C(C1CCCc2nn(Cc3cccc(F)c3)c(=O)n21)N1CCC(F)(F)C1 (racemic) [Example 56, (5RS)-5-[(3,3-Difluoropyrrolidin-1-yl)carbonyl]-2-(3-fluorobenzyl)-5,6,7,8-tetrahydro[1,2,4]triazolo[4,3-a]pyridin-3(2H)-one] | 5.6
O=C([C@@H]1CCCc2nn(Cc3cc4cccnc4nc3C(F)(F)F)c(=O)n21)N1CCC(F)(F)C1 [Example 418, (5S)-5-[(3,3-Difluoropyrrolidin-1-yl)carbonyl]-2-{[2-(trifluoromethyl)-1,8-naphthyridin-3-yl]methyl}-5,6,7,8-tetrahydro[1,2,4]triazolo[4,3-a]pyridin-3(2H)-one] | 2.24
